Measurements reported in patent US7018654B2, “Pharmaceutical composition containing an active agent in an amino acid copolymer structure” (New River Pharmaceuticals Inc., priority 1999, dated 2006).

Legend:
[1] = system: cultured human amniocytes; details: 0.8% solution in alpha-MEM without glutamine, with insulin and transferrin, pH 7.2
[2] = In vitro stability of glutamine by incubation in 0.2 M phosphate buffer at pH 9.0; format: physicochemical; details: pH 9.0, 37° C., same conditions
Procedure: The product of Example 2 was tested for stability and compared to monomeric glutamine by incubation in 0.2 M phosphate buffer at pH 9.0 as described by Price and Greenstein (J. Biol. Chem. vol. 180. p. 209, 1949), incorporated herein by reference.

[3] = Stability of Gln measured by production of free ammonia in 0.2 M phosphate buffer; format: physicochemical

| Compound | Growth of cultured cells with no addition of monomeric L-glutamine [1] | Stability of glutamine (result in words) [2] | Stability of Gln, production of free ammonia (result in words) [3] |
| --- | --- | --- | --- |
| Glutamic Acid/Glutamine Co-Polymer [Example 19] | support growth of cultured human amniocytes, through multiple passages | – | – |
| NC(=O)CC[C@H](N)C(=O)O [monomeric glutamine, glutamine] | – | extensive degradation to ammonia and pyrrolidonecarboxylic acid | almost completely de-amidated |
